Results as given in patent US11033539B2, “Compounds of formulas (VII), (VIII), (IX), (XI), (XII), (XIII), and (XIV) as muscarinic receptor 4(M4) antagonists for treating neurological diseases” (Neurocrine Biosciences, Inc., priority 2015, dated 2021).

Target: human M4 receptor (Homo sapiens (Human), UniProt P08173)
Assay: Radioligand (tritiated N-methylscopolamine) binding assay, M4
Conditions: Ki against the M4 receptor; membranes from CHO cells expressing human M4; tritiated N-methylscopolamine 1.5 nM; read-out: Ki
In short: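 CHO membranes; 1.5 nM radioligand; 12-point compound dose-response, 10 μM to […]; HEPES/NaCl/MgCl2/EDTA buffer pH 7.4; 90 min, 37 °C. PEI-treated glass fiber filtration, radioactivity counting. Ki from inhibition of binding.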

Sequence of human M4 receptor (P08173 whole entry): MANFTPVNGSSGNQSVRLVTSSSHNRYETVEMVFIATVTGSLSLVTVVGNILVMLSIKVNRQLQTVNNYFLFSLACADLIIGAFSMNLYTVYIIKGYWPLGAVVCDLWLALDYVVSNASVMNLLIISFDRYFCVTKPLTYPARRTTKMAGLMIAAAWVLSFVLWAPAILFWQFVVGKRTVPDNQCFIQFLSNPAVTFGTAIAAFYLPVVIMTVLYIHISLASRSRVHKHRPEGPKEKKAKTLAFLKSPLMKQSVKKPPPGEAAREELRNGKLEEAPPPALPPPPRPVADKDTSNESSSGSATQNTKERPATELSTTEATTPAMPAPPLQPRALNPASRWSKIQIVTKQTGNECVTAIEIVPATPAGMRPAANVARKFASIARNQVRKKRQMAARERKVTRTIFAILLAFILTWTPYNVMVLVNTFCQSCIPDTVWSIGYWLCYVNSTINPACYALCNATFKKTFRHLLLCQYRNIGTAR

Row | Compound | Ki [nM]
1 | O=C(NCCC1CCN(Cc2ccccc2)CC1)C1(O)CCN(c2ccc(OC(F)(F)F)c(F)c2)CC1 [10-41, N-[2-(1-benzylpiperidin-4-yl)ethyl]-1-[3-fluoro-4-(trifluoromethoxy)phenyl]-4-hydroxypiperidine-4-carboxamide] | 10 to 100
2 | O=C(NCCC1CCN(Cc2ccccc2)CC1)C1CCN(c2cccc3c2OC(F)(F)O3)CC1 [10-45, N-[2-(1-benzylpiperidin-4-yl)ethyl]-1-(2,2-difluoro-2H-1,3-benzodioxol-4-yl)piperidine-4-carboxamide] | 10 to 100
3 | N#Cc1cc(OC(F)(F)F)cc(N2CCC(O)(C(=O)NCCC3CCN(Cc4ccccc4)CC3)CC2)c1 [10-46, N-[2-(1-benzylpiperidin-4-yl)ethyl]-1-[3-cyano-5-(trifluoromethoxy)phenyl]-4-hydroxypiperidine-4-carboxamide] | 10 to 100
4 | COC1(C(=O)NCCC2CCN(Cc3ccccc3)CC2)CCN(c2cc(C(F)(F)F)ccn2)CC1 [10-47, N-[2-(1-benzylpiperidin-4-yl)ethyl]-4-methoxy-1-[4-(trifluoromethyl)pyridin-2-yl]piperidine-4-carboxamide] | 10 to 100
5 | COC1(C(=O)NCCC2CCN(Cc3ccccc3)CC2)CCN(c2ccc(C(F)(F)F)cn2)CC1 [10-48, N-[2-(1-benzylpiperidin-4-yl)ethyl]-4-methoxy-1-[5-(trifluoromethyl)pyridin-2-yl]piperidine-4-carboxamide] | 100 to 1000
6 | O=C(NCCC1CCN(Cc2ccccc2)CC1)[C@@H]1CCN(c2cccc(OC(F)(F)F)c2)C1 [10-49, (3R)-N-[2-(1-benzylpiperidin-4-yl)ethyl]-1-[3-(trifluoromethoxy)phenyl]pyrrolidine-3-carboxamide] | 100 to 1000
7 | N#Cc1ccc(N2CCC(C(=O)NCCC3CCN(Cc4ccccc4)CC3)CC2)c(F)c1 [10-50, N-[2-(1-benzylpiperidin-4-yl)ethyl]-1-(4-cyano-2-fluorophenyl)piperidine-4-carboxamide] | 100 to 1000
8 | N#Cc1cc(N2CCC(O)(C(=O)NCCC3CCN(Cc4ccccc4)CC3)CC2)ccc1F [10-51, N-[2-(1-benzylpiperidin-4-yl)ethyl]-1-(3-cyano-4-fluorophenyl)-4-hydroxypiperidine-4-carboxamide] | 100 to 1000
9 | O=C(NCCC1CCN(Cc2ccccc2)CC1)[C@H]1CCN(c2cccc(OC(F)(F)F)c2)C1 [10-52, (3S)-N-[2-(1-benzylpiperidin-4-yl)ethyl]-1-[3-(trifluoromethoxy)phenyl]pyrrolidine-3-carboxamide] | 100 to 1000
10 | COc1cccc(N2CCC(C(=O)NCCC3CCN(Cc4ccccc4)CC3)CC2)c1 [10-53, N-[2-(1-benzylpiperidin-4-yl)ethyl]-1-(3-methoxyphenyl)piperidine-4-carboxamide] | 100 to 1000
11 | O=C(NCCC1CCN(Cc2ccccc2)CC1)C1(F)CCN(c2ccc(OC(F)(F)F)cc2)CC1 [10-55, N-[2-(1-benzylpiperidin-4-yl)ethyl]-4-fluoro-1-[4-(trifluoromethoxy)phenyl]piperidine-4-carboxamide] | 10 to 100
12 | O=C(NCCC1CCN(Cc2ccccc2)CC1)C1CCN(c2ccccc2F)CC1 [10-59, N-[2-(1-benzylpiperidin-4-yl)ethyl]-1-(2-fluorophenyl)piperidine-4-carboxamide] | 100 to 1000
13 | COc1ccc(N2CCC(C(=O)NCCC3CCN(Cc4ccccc4)CC3)CC2)cc1 [10-60, N-[2-(1-benzylpiperidin-4-yl)ethyl]-1-(4-methoxyphenyl)piperidine-4-carboxamide] | 100 to 1000
14 | O=C(NCCC1CCN(Cc2ccccc2)CC1)C1(O)CCN(c2ccc(OC(F)(F)F)cn2)CC1 [10-61, N-[2-(1-benzylpiperidin-4-yl)ethyl]-4-hydroxy-1-[5-(trifluoromethoxy)pyridin-2-yl]piperidine-4-carboxamide] | 100 to 1000
15 | O=C(NCCC1CCN(Cc2ccccc2)CC1)C1(O)CCN(c2cccc(OC(F)(F)F)c2)CC1 [10-62, N-[2-(1-benzylpiperidin-4-yl)ethyl]-4-hydroxy-1-[3-(trifluoromethoxy)phenyl]piperidine-4-carboxamide] | 100 to 1000
16 | COC1(C(=O)NCCC2CCN(Cc3ccccc3)CC2)CCN(c2ccc(OC(F)(F)F)cn2)CC1 [10-63, N-[2-(1-benzylpiperidin-4-yl)ethyl]-4-methoxy-1-[5-(trifluoromethoxy)pyridin-2-yl]piperidine-4-carboxamide] | 100 to 1000
17 | O=C(NCCC1CCN(Cc2ccccc2)CC1)C1(O)CCN(c2cc(F)ccc2F)CC1 [10-64, N-[2-(1-benzylpiperidin-4-yl)ethyl]-1-(2,5-difluorophenyl)-4-hydroxypiperidine-4-carboxamide] | 100 to 1000
18 | CS(=O)(=O)c1cccc(N2CCC(C(=O)NCCC3CCN(Cc4ccccc4)CC3)CC2)c1 [10-65, N-[2-(1-benzylpiperidin-4-yl)ethyl]-1-(3-methanesulfonylphenyl)piperidine-4-carboxamide] | 100 to 1000
19 | N#Cc1ccnc(N2CCC(C(=O)NCCC3CCN(Cc4ccccc4)CC3)CC2)c1 [10-66, N-[2-(1-benzylpiperidin-4-yl)ethyl]-1-(4-cyanopyridin-2-yl)piperidine-4-carboxamide] | 100 to 1000

Row | Compound | Ki [nM]
20 | N#Cc1ccccc1N1CCC(C(=O)NCCC2CCN(Cc3ccccc3)CC2)CC1 [10-67, N-[2-(1-benzylpiperidin-4-yl)ethyl]-1-(2-cyanophenyl)piperidine-4-carboxamide] | 100 to 1000
21 | O=C(NCCC1CCN(Cc2ccccc2)CC1)C1CCN(c2ccc(C(F)(F)F)nc2)CC1 [10-68, N-[2-(1-benzylpiperidin-4-yl)ethyl]-1-[6-(trifluoromethyl)pyridin-3-yl]piperidine-4-carboxamide] | 100 to 1000
22 | N#Cc1cc(F)ccc1N1CCC(C(=O)NCCC2CCN(Cc3ccccc3)CC2)CC1 [10-69, N-[2-(1-benzylpiperidin-4-yl)ethyl]-1-(2-cyano-4-fluorophenyl)piperidine-4-carboxamide] | 100 to 1000
23 | O=C(NCCC1CCN(Cc2ccccc2)CC1)C1CCN(c2ccccc2OC(F)(F)F)CC1 [10-70, N-[2-(1-benzylpiperidin-4-yl)ethyl]-1-[2-(trifluoromethoxy)phenyl]piperidine-4-carboxamide] | 100 to 1000
24 | O=C(NCCC1CCN(Cc2ccccc2)CC1)[C@H]1CCN(c2ccc(OC(F)(F)F)cc2)C1 [10-71, (3S)-N-[2-(1-benzylpiperidin-4-yl)ethyl]-1-[4-(trifluoromethoxy)phenyl]pyrrolidine-3-carboxamide] | 100 to 1000
25 | O=C(NCCC1CCN(Cc2ccccc2)CC1)[C@@H]1CCN(c2ccc(OC(F)(F)F)cc2)C1 [10-72, (3R)-N-[2-(1-benzylpiperidin-4-yl)ethyl]-1-[4-(trifluoromethoxy)phenyl]pyrrolidine-3-carboxamide] | 100 to 1000
26 | O=C(NCCC1CCN(Cc2ccccc2)CC1)C1CCN(c2ccc(F)cn2)CC1 [10-73, N-[2-(1-benzylpiperidin-4-yl)ethyl]-1-(5-fluoropyridin-2-yl)piperidine-4-carboxamide] | 100 to 1000
27 | Cc1cc(C)nc(N2CCC(C(=O)NCCC3CCN(Cc4ccccc4)CC3)CC2)n1 [10-74, N-[2-(1-benzylpiperidin-4-yl)ethyl]-1-(4,6-dimethylpyrimidin-2-yl)piperidine-4-carboxamide] | 100 to 1000
28 | COC1(C(=O)NCCC2CCN(Cc3ccccc3)CC2)CCN(c2ccccc2OC(F)(F)F)CC1 [10-75, N-[2-(1-benzylpiperidin-4-yl)ethyl]-4-methoxy-1-[2-(trifluoromethoxy)phenyl]piperidine-4-carboxamide] | 100 to 1000
29 | O=C(NCCC1CCN(Cc2ccccc2)CC1)C1CCN(c2ccc(OC(F)F)cc2)CC1 [10-76, N-[2-(1-benzylpiperidin-4-yl)ethyl]-1-[4-(difluoromethoxy)phenyl]piperidine-4-carboxamide] | 10 to 100
30 | N#Cc1cccc(N2CCC(C(=O)NCCC3CCN(Cc4ccccc4)CC3)CC2)c1 [10-77, N-[2-(1-benzylpiperidin-4-yl)ethyl]-1-(3-cyanophenyl)piperidine-4-carboxamide] | 10 to 100
31 | N#Cc1ccc(N2CCC(C(=O)NCCC3CCN(Cc4ccccc4)CC3)CC2)cc1F [10-78, N-[2-(1-benzylpiperidin-4-yl)ethyl]-1-(4-cyano-3-fluorophenyl)piperidine-4-carboxamide] | 10 to 100
32 | O=C(NCCC1CCN(Cc2ccc(O)cc2)CC1)C1CCN(c2ccc(OC(F)(F)F)cc2)CC1 [11-1, N-(2-{1-[(4-hydroxyphenyl)methyl]piperidin-4-yl}ethyl)-1-[4-(trifluoromethoxy)phenyl]piperidine-4-carboxamide] | 10 to 100
33 | O=C(NCCC1CCN(Cc2cccnc2F)CC1)c1ccc(Oc2ccccc2)cc1 [11-2, N-(2-{1-[(2-fluoropyridin-3-yl)methyl]piperidin-4-yl}ethyl)-4-phenoxybenzamide] | 10 to 100
34 | O=C(NCCC1CCN(Cc2ccccc2O)CC1)c1ccc(OCc2ccccc2)cc1 [11-3, 4-(benzyloxy)-N-(2-{1-[(2-hydroxyphenyl)methyl]piperidin-4-yl}ethyl)benzamide] | 10 to 100
35 | Cc1nc(CN2CCC(CCNC(=O)C3CCN(c4ccc(OC(F)(F)F)cc4)CC3)CC2)cs1 [11-4, N-(2-{1-[(2-methyl-1,3-thiazol-4-yl)methyl]piperidin-4-yl}ethyl)-1-[4-(trifluoromethoxy)phenyl]piperidine-4-carboxamide] | 100 to 1000
36 | O=C(NCCC1CCN(Cc2ccccc2O)CC1)c1ccc(Oc2ccccc2)cc1 [11-5, N-(2-{1-[(2-hydroxyphenyl)methyl]piperidin-4-yl}ethyl)-4-phenoxybenzamide] | 100 to 1000
37 | COC(=O)C(c1ccccc1)N1CCC(CCNC(=O)C2CCN(c3ccc(OC(F)(F)F)cc3)CC2)CC1 (stereo not drawn) [11-6, methyl 2-phenyl-2-{4-[2-({l-[4-(trifluoromethoxy)phenyl]piperidin-4-yl}formamido)ethyl]piperidin-1-yl}acetate] | 10 to 100
38 | O=C(NCCC1CCN(Cc2cccc3c2OCCO3)CC1)c1ccc(OCc2ccccc2)cc1 [11-7, 4-(benzyloxy)-N-{2-[1-(2,3-dihydro-1,4-benzodioxin-5-ylmethyl)piperidin-4-yl]ethyl}benzamide] | 10 to 100
